US20080194492A1, “Plant Extracts for the Treatment of Incresed Bone Resorption” (priority 2003, published 2008)
“Also recorded” adds a separate entry of the source.

System: osteoclasts of new-born rats
Experiment: osteoclast pit assay (in vitro resorption activity of osteoclasts on ivory slices)
Format: cell-based, rat
Conditions: for magnitude of the inhibition when PTH is added compared with without (in words): PTH 10^−8 M added to cultures; for inhibition of osteoclast resorption activity in vitro (in words): osteoclast pit assay, dose not given
Method: It will be appreciated that the osteoclast pit assay is a well established in vitro model of bone resorption and readily known to one skilled in the art. Briefly, medium containing a sample to be tested, e.g. 30 mg or less of freeze-dried hydrophilic fraction A per ml, is added to osteoclasts of new-born rats settled on ivory slices. After 24 hours of incubation, the tartrate-resistant acid phosphatase positive multi-nucleated cells, i.e. osteoclasts, are counted. Subsequently, the number of resorption pits is determined. […] For the analysis of statistical significance, the ratios of the treated groups±their respective SEMs are compared to the 95% confidence interval of the SEM of the negative control. […] The inhibitory effect on osteoclasts is assessed by counting the osteoclast resorption pits on the ivory slice. […] To assess in vitro the bone resorbing inhibitory activity, the osteoclast pit assay is used. Medium containing 30 mg or less of freeze-dried fraction per ml is added to osteoclasts of new-born rats settled on ivory slices. After 24 hours of incubation, the tartrate-resistant acid phosphatase positive multi-nucleated cells, i.e. osteoclasts, are counted. Subsequently, the number of resorption pits is determined. […] For the analysis of statistical significance, the ratios of the treated groups±their respective SEMs are compared to the 95% confidence interval of the SEM of the negative control. • a) TLC-Screening and Yields of the RP-MPLC Fractionations. Bioassay (in vitro assessment of osteoclast activity). Osteoclasts were isolated from femora and tibiae of 2-day-old rats and settled for 40 min onto 4×4 mm ivory slices used as the mineralized substrate. After washing off non-adherent cells, individual slices were transferred to 48-well tissue culture plates and incubated for 24 h at 37° C. in a 5% CO2/air atmosphere (14;15) in medium containing 10% fetal bovine serum (FBS) with or without the material to be tested. The concentration of bicarbonate in the MEM Earle's medium was reduced to 15 mM by addition of 12M HCl. In each experiment calcitonin (salmon calcitonin, Novartis Pharma, Basel, Switzerland) was added as positive control at the concentration of 10^-11 M or 10^-12 M. In one experiment parathyroid hormone (PTH; bovine 1-34, Bachem, Bubendorf, Switzerland) was added at the concentration of 10^-8 M, in order to stimulate bone resorption. For each material to be tested 8 slices were used, for the untreated control 2×8 slices were used. After fixation osteoclasts were stained for tartrate-resistant acid-phosphatase (TRAP) (kit 386-A, Sigma, Buchs, Switzerland) and were counted blinded as TRAP positive (TRAP+) multinucleated (more than 2 nuclei) cells (MNC). After removing the cells, the slices were sputter coated with gold and the resorption pits counted blinded in a process described in Vitté, C.; Fleisch, H.: Guenther, H. L. Bisphosphonates induce osteoblasts to secrete an inhibitor of osteoclast-mediated resorption. Endocrinology 1996, 137, 2324-2333. Osteoclastic resorption activity is calculated as the ratio: resorption pits/TRAP+MNC.

With `C/C=C/[S+]([O-])C[C@H](NC(=O)CC[C@H](N)C(=O)O)C(=O)O` (relative stereo) [A1-4C, γ-L-glutamyl-trans-S-1-propenyl-L-cysteine sulfoxide] the “activity on osteoclast resorption (in words)” value (0.53 mg/mL, i.e. 1.7 mM GPCS) was “active”, the “Pits/TRAP+ cells ± SEM” value (0.53 mg/mL, neg. control 0.739 ± 0.138) was 0.325 ± 0.108 and the “inhibition of osteoclast resorption activity (in words)” value (2 mM) was “not significant”. The “resorption activity of osteoclasts (in words)” value (2, 4 and 8 mM, with or without PTH 10^−8 M (FIG. 4)) was “inhibits the resorption activity of osteoclasts dose-dependently”, the “magnitude of the inhibition when PTH is added compared with without (in words)” value was “somewhat smaller” and the minimal effective dose (cultures not stimulated with PTH) was “around 2 mM”. For the same molecule, the “minimal effective dose, graphical interpolation from FIG. 4” value (cultures stimulated with PTH) was “around 3 mM”, the “inhibition of osteoclast resorption activity in vitro (in words)” value (“inhibition … in vitro (in words)” below) was “only active fraction” and the “inhibition … in vitro (in words)” value (listed as Fraction A 1-4C) was “inhibited osteoclast activity nearly as strong as fraction A 1-4”. The “inhibition … in vitro (in words)” value (listed as Fraction A1-4C) was “inhibits osteoclast activity similar to fraction A1-4” and the “inhibition … in vitro (in words)” value (listed as fraction A1-4C) was “significantly (p<0.5) inhibit bone resorption; also recorded: inhibiting osteoclast activity”.
With “CT: salmon calcitonin, Novartis Pharma, positive control [reference compound]” the “Pits/TRAP+ cells ± SEM” value (10^−12 M, 24 h, neg. control 0.489 ± 0.128) was 0.061 ± 0.063, the “Pits/TRAP+ cells ± SEM” value (10^−12 M, neg. control 0.739 ± 0.138) was 0.116 ± 0.030 and the “magnitude of the inhibition when PTH is added compared with without (in words)” value was “somewhat smaller”.
